The subject of one data set is Bacillus subtilis. In words: Antibacterial activity against Bacillus subtilis BS01 assessed as bacterial growth inhibition. The class given is functional.
The next data set relates to Micrococcus luteus. In words: Antibacterial activity against Micrococcus luteus ML01 assessed as bacterial growth inhibition. The class given is functional.
The test system of data set [1] is Staphylococcus aureus. In words: Antibacterial activity against Staphylococcus aureus ATCC 29213 assessed as bacterial growth inhibition. The class given is functional.
For data set [2], the system named is Staphylococcus aureus. In words: Antibacterial activity against methicillin-resistant Staphylococcus aureus shhs-E1 assessed as bacterial growth inhibition. It is filed as functional.
In data set [3] the test system is Staphylococcus aureus. In words: Antibacterial activity against methicillin-resistant Staphylococcus aureus 16339 assessed as bacterial growth inhibition. It is filed as functional.
Data set [4] has as its system Staphylococcus aureus. In words: Antibacterial activity against methicillin-resistant Staphylococcus aureus 745524 assessed as bacterial growth inhibition. The class given is functional.
In data set [5] the test system is Staphylococcus aureus. In words: Antibacterial activity against methicillin-resistant Staphylococcus aureus 16162 assessed as bacterial growth inhibition. The class given is functional.
Data set [6] has as its system Staphylococcus aureus. In words: Antibacterial activity against methicillin-resistant Staphylococcus aureus 718306 assessed as bacterial growth inhibition. The class given is functional.
The test system of data set [7] is Staphylococcus aureus. In words: Antibacterial activity against methicillin-resistant Staphylococcus aureus 6917 assessed as bacterial growth inhibition. It is filed as functional.
Data set [8] relates to Mycolicibacterium smegmatis. In words: Antibacterial activity against Mycobacterium smegmatis ATCC607 assessed as bacterial growth inhibition. The class given is functional.
Data set [9] concerns Helicobacter pylori. In words: Antibacterial activity against Helicobacter pylori G27 assessed as bacterial growth inhibition. The class given is functional.
Data set [10] deals with Helicobacter pylori. In words: Antibacterial activity against Helicobacter pylori 159 assessed as bacterial growth inhibition. The class given is functional.
Data set [11] deals with Candida albicans. In words: Antifungal activity against Candida albicans C5 assessed as fungal growth inhibition. It is filed as functional.
Data set [12] has as its system Candida albicans. In words: Antifungal activity against Candida albicans ATCC SC5314 assessed as fungal growth inhibition. It is filed as functional.
A further data set concerns Cryptococcus neoformans. In words: Antifungal activity against Cryptococcus neoformans ATCC4906 assessed as fungal growth inhibition. It is filed as functional.
A further data set has as its system MCF7. In words: Cytotoxicity against human MCF7 cells assessed as reduction in cell viability after 72 hrs by MTT assay. It is filed as functional, cell-based. To be noted: MCF7, 72 h. (Tetrazolium dyes change colour on reduction, which living cells bring about.)
The next data set deals with HepG2. In words: Cytotoxicity against human HepG2 cells assessed as reduction in cell viability after 72 hrs by MTT assay. The class given is functional, cell-based. To be noted: HepG2, 72 h.
The test system of the next data set is HeLa. In words: Cytotoxicity against human HeLa cells assessed as reduction in cell viability after 72 hrs by MTT assay. It is filed as functional, cell-based.
A further data set concerns A549. In words: Cytotoxicity against human A549 cells assessed as reduction in cell viability by after 72 hrs MTT assay. It is filed as functional, cell-based. The following applies: A549, 72 h.
In a further data set the test system is RKO. In words: Cytotoxicity against human RKO cells assessed as reduction in cell viability after 72 hrs by MTT assay. It is filed as functional, cell-based.
Another data set concerns HL-60. In words: Cytotoxicity against human HL-60 cells assessed as reduction in cell viability after 72 hrs by MTT assay. To be noted: HL-60, 72 h. It is filed as functional, cell-based.
Data set [13] in a line: Cytotoxicity against human L02 cells assessed as reduction in cell viability after 72 hrs by MTT assay. It is filed as toxicity, cell-based.
Data set [14] in a line: Cytotoxicity against human BEAS-2B cells assessed as reduction in cell viability after 72 hrs by MTT assay. It is filed as toxicity, cell-based.

In ChEMBL document CHEMBL5046263, “Characterization of the Aminosugar Biosynthetic and Regulatory Genes of Vicenistatin in Monodonata labio-Associated Streptomyces parvus SCSIO Mla-L010” (J Nat Prod, 2022) one finds MIC and IC50 data, which are given here for five compounds.

The structures appear in SMILES notation. Values after ≈ are worked out from the molar mass of the structure shown.

Consider `C/C1=C\C=C\CC[C@H](C)CNC(=O)/C=C/C=C/[C@H](C)[C@@H](O[C@H]2C[C@H](O)[C@H](N)[C@@H](C)O2)C/C=C(\C)C1`, for which the MIC (in general, the lowest concentration that inhibits growth of the organism) in the data set with Bacillus subtilis stood at 0.5 µg/mL (≈ 1.03 µM); in the data set on Micrococcus luteus, 0.25 µg/mL (≈ 0.514 µM); in the data set on Staphylococcus aureus [1] it was 0.13 µg/mL (≈ 0.267 µM); in the data set with Staphylococcus aureus [2], 0.25 µg/mL (≈ 0.514 µM); in the data set with Staphylococcus aureus [3], 0.5 µg/mL (≈ 1.03 µM); with Staphylococcus aureus [4] it was 0.25 µg/mL (≈ 0.514 µM). The MIC in the data set on Staphylococcus aureus [5] is 0.25 µg/mL (≈ 0.514 µM); with Staphylococcus aureus [6], 0.25 µg/mL (≈ 0.514 µM); in the data set on Staphylococcus aureus [7], 0.13 µg/mL (≈ 0.267 µM); in [8], 4 µg/mL (≈ 8.22 µM); in the data set with Helicobacter pylori [9], 1 µg/mL (≈ 2.05 µM); with Helicobacter pylori [10], 1 µg/mL (≈ 2.05 µM). Besides, the MIC with Candida albicans [11] was found to be 2 µg/mL (≈ 4.11 µM); with Candida albicans [12], 1 µg/mL (≈ 2.05 µM); in the data set with Cryptococcus neoformans, 2 µg/mL (≈ 4.11 µM). Further, the IC50 (commonly the point on the concentration scale where inhibition reaches its midpoint) in the data set on MCF7 amounted to 1.16 µM; in the data set with HepG2 it was 2.09 µM; in the data set on HeLa it was 1.29 µM; with A549, 1.33 µM; in the data set on RKO, 2.1 µM; with HL-60, 0.89 µM. Also, the IC50 at 72 h in data set [13] stood at 5.36 µM; in data set [14], 3.23 µM.
Take `C[C@@H]1[C@H](O)[C@@H](C)/C=C/C=C/C=C/C=C/C=C/C=C/C=C/[C@H](O[C@@H]2O[C@H](C)[C@@H](O)[C@H](N)[C@@H]2O)C[C@@H]2O[C@](O)(C[C@@H](O)C[C@@H](O)[C@H](O)CC[C@@H](O)C[C@@H](O)CC(=O)O[C@H]1C)C[C@H](O)[C@H]2C(=O)O` [AMPHOTERICIN B]: the MIC came out at 1 µg/mL (≈ 1.08 µM) with Candida albicans [11], 1 µg/mL (≈ 1.08 µM) in the data set with Candida albicans [12] and 2 µg/mL (≈ 2.16 µM) in the data set with Cryptococcus neoformans.
Turning to `CC1(C)S[C@@H]2[C@H](NC(=O)[C@H](N)c3ccccc3)C(=O)N2[C@H]1C(=O)O` [AMPICILLIN], the values for the MIC (in data set [8]; in the data set with Helicobacter pylori [9]; in the data set on Helicobacter pylori [10]) were 64 µg/mL (≈ 183 µM), 4 µg/mL (≈ 11.4 µM) and 4 µg/mL (≈ 11.4 µM), respectively.
`CN[C@H](CC(C)C)C(=O)N[C@H]1C(=O)N[C@@H](CC(N)=O)C(=O)N[C@H]2C(=O)N[C@H]3C(=O)N[C@H](C(=O)N[C@H](C(=O)O)c4cc(O)cc(O)c4-c4cc3ccc4O)[C@H](O)c3ccc(c(Cl)c3)Oc3cc2cc(c3O[C@@H]2O[C@H](CO)[C@@H](O)[C@H](O)[C@H]2O[C@H]2C[C@](C)(N)[C@H](O)[C@H](C)O2)Oc2ccc(cc2Cl)[C@H]1O` [VANCOMYCIN]: the minimum inhibitory concentration (MIC) with Bacillus subtilis was 0.13 µg/mL (≈ 0.0897 µM); with Micrococcus luteus, 0.13 µg/mL (≈ 0.0897 µM); in the data set on Staphylococcus aureus [6], 0.25 µg/mL (≈ 0.173 µM).
Regarding `CN[C@H]1[C@@H](O)C[C@H](O[C@H]2C/C=C(\C)C/C(C)=C/C=C/CC[C@H](C)CNC(=O)/C=C/C=C/[C@@H]2C)O[C@@H]1C` [VICENISTATIN], the MIC in the data set on Bacillus subtilis turned out to be 0.13 µg/mL (≈ 0.26 µM); with Micrococcus luteus, 0.06 µg/mL (≈ 0.12 µM); with Staphylococcus aureus [1] it was 0.06 µg/mL (≈ 0.12 µM); in the data set with Staphylococcus aureus [2], 0.13 µg/mL (≈ 0.26 µM); in the data set with Staphylococcus aureus [3], 0.06 µg/mL (≈ 0.12 µM); in the data set with Staphylococcus aureus [4] it was 0.06 µg/mL (≈ 0.12 µM). Besides, the MIC in the data set on Staphylococcus aureus [5] is 0.13 µg/mL (≈ 0.26 µM); in the data set with Staphylococcus aureus [6], 0.13 µg/mL (≈ 0.26 µM); in the data set on Staphylococcus aureus [7] it was 0.06 µg/mL (≈ 0.12 µM); in data set [8], greater than 64 µg/mL; with Helicobacter pylori [9], 1 µg/mL (≈ 2 µM); in the data set with Helicobacter pylori [10] it was 1 µg/mL (≈ 2 µM). For the same compound, the minimum inhibitory concentration (MIC) in the data set on Candida albicans [11] was determined as 4 µg/mL (≈ 7.99 µM); in the data set on Candida albicans [12], 4 µg/mL (≈ 7.99 µM); in the data set with Cryptococcus neoformans, 2 µg/mL (≈ 3.99 µM). The concentration for half-maximal inhibition (IC50) amounted to 0.8 µM with MCF7; 2.01 µM in the data set on HepG2; 1.38 µM in the data set with HeLa; 0.76 µM with A549; 2.33 µM in the data set on RKO; 0.64 µM in the data set with HL-60. Besides, the half-inhibitory concentration (IC50) at 72 h worked out at 0.89 µM in data set [13] and 1.4 µM in data set [14].
